Test results reported in PubChem BioAssay AID328 (DTP/NCI, 2004).
Inconclusive results and toxic doses are left out.

Test system: BDF1 mice, P388 leukemia ip, median survival T/C
Experiment: NCI In Vivo Anticancer Drug Screen. Data for tumor model P388 Leukemia (intraperitoneal) in B6D2F1 (BDF1) mice
Conditions: endpoint: median survival time, higher = longer survival
In short: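 Mice carrying the transplantable tumour receive compound or vehicle. Survival is followed in each arm, and the treated measure is divided by the vehicle measure.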

[1] = dose: 100.0 mg/kg/injection, schedule: Q01DX009 (ip), vehicle: Klucel (hydroxypropylcellulose) (HPC)
[2] = dose: 100.0 mg/kg/injection, schedule: Q04DX003 (ip), vehicle: Klucel (hydroxypropylcellulose) (HPC)
[3] = dose: 200.0 mg/kg/injection, schedule: Q04DX003 (ip), vehicle: Klucel (hydroxypropylcellulose) (HPC)
[4] = dose: 400.0 mg/kg/injection, schedule: Q01DX009 (ip), vehicle: Klucel (hydroxypropylcellulose) (HPC)
[5] = dose: 400.0 mg/kg/injection, schedule: Q04DX003 (ip), vehicle: Klucel (hydroxypropylcellulose) (HPC)

SMILES: Nc1ccccc1C(=O)OCCc1ccccc1
- T/C [1]: 100 % of control
- T/C [2]: 95 % of control
- T/C [3]: 91 % of control
- T/C (dose: 266.0 mg/kg/injection, schedule: Q01DX009 (ip), vehicle: Klucel (hydroxypropylcellulose) (HPC)): 94 % of control
- T/C [4]: 110 % of control
- T/C [5]: 95 % of control
- T/C (dose: 600.0 mg/kg/injection, schedule: Q01DX009 (ip), vehicle: Klucel (hydroxypropylcellulose) (HPC)): 100 % of control

SMILES: O=C(c1ccccc1)C1Cc2ccccc2C1=O (configuration not stated)
- T/C (dose: 100.0 mg/kg/injection, schedule: Q01DX001 (ip), vehicle: Klucel (hydroxypropylcellulose) (HPC)): 100 % of control
- T/C [1]: 113 % of control
- T/C [2]: 100 % of control
- T/C (dose: 200.0 mg/kg/injection, schedule: Q01DX001 (ip), vehicle: Klucel (hydroxypropylcellulose) (HPC)): 100 % of control
- T/C (dose: 200.0 mg/kg/injection, schedule: Q01DX009 (ip), vehicle: Klucel (hydroxypropylcellulose) (HPC)): 109 % of control
- T/C [3]: 100 % of control
- T/C (dose: 400.0 mg/kg/injection, schedule: Q01DX001 (ip), vehicle: Klucel (hydroxypropylcellulose) (HPC)): 95 % of control
- T/C [4]: 118 % of control
- T/C [5]: 90 % of control

SMILES: CCC[As](=O)(O)CCC
- T/C (dose: 12.5 mg/kg/injection, schedule: Q01DX009 (ip), vehicle: saline): 115 % of control
- T/C (dose: 25.0 mg/kg/injection, schedule: Q01DX009 (ip), vehicle: saline): 110 % of control
- T/C (dose: 33.0 mg/kg/injection, schedule: Q01DX009 (ip), vehicle: saline): 100 % of control
- T/C (dose: 75.0 mg/kg/injection, schedule: Q01DX009 (ip), vehicle: saline): 120 % of control

SMILES: Cc1n[nH]c(=O)[nH]c1=O
- T/C (dose: 12.5 mg/kg/injection, schedule: Q01DX009 (ip), vehicle: Klucel (hydroxypropylcellulose) (HPC)): 100 % of control
- T/C (dose: 25.0 mg/kg/injection, schedule: Q01DX009 (ip), vehicle: Klucel (hydroxypropylcellulose) (HPC)): 109 % of control
- T/C (dose: 50.0 mg/kg/injection, schedule: Q01DX009 (ip), vehicle: Klucel (hydroxypropylcellulose) (HPC)): 100 % of control
- T/C [1]: 91 % of control

SMILES: Nc1n[nH]c(=S)n1-c1ccc(Cl)cc1
- T/C [2]: 100 % of control
- T/C [3]: 104 % of control
- T/C [5]: 100 % of control

SMILES: c1ccc(CC(Cc2ccccc2)NC2=NCCO2)cc1
- T/C (dose: 6.25 mg/kg/injection, schedule: Q04DX003 (ip), vehicle: saline with Tween-80): 100 % of control
- T/C (dose: 12.5 mg/kg/injection, schedule: Q04DX003 (ip), vehicle: saline with Tween-80): 100 % of control
- T/C (dose: 25.0 mg/kg/injection, schedule: Q04DX003 (ip), vehicle: saline with Tween-80): 100 % of control

SMILES: CN(C)[C@@H]1C(=O)C(C(=O)NCN2CCN(C(=N)N=C(N)N)CC2)=C(O)[C@@]2(O)C(=O)C3=C(O)c4c(O)cccc4[C@@](C)(O)[C@H]3C[C@@H]12
- T/C (dose: 0.1 mg/kg/injection, schedule: Q04DX003 (ip), vehicle: saline): 124 % of control
- T/C (dose: 1.0 mg/kg/injection, schedule: Q04DX003 (ip), vehicle: saline): 120 % of control
- T/C (dose: 5.0 mg/kg/injection, schedule: Q04DX003 (ip), vehicle: saline): 155 % of control

SMILES: O=C1Nc2ccc(Br)cc2C1=Nc1cccnc1
- T/C (dose: 50.0 mg/kg/injection, schedule: Q01DX009 (ip), vehicle: saline with Tween-80): 100 % of control
- T/C (dose: 100.0 mg/kg/injection, schedule: Q01DX009 (ip), vehicle: saline with Tween-80): 104 % of control
- T/C (dose: 200.0 mg/kg/injection, schedule: Q01DX009 (ip), vehicle: saline with Tween-80): 111 % of control
- T/C (dose: 400.0 mg/kg/injection, schedule: Q01DX009 (ip), vehicle: saline with Tween-80): 111 % of control

SMILES: CC(=O)c1ccccc1OS(=O)(=O)c1ccc([N+](=O)[O-])cc1
- T/C (dose: 100.0 mg/kg/injection, schedule: Q01DX009 (ip), vehicle: saline sonified): 95 % of control
- T/C (dose: 100.0 mg/kg/injection, schedule: Q04DX003 (ip), vehicle: saline sonified): 100 % of control
- T/C (dose: 200.0 mg/kg/injection, schedule: Q01DX009 (ip), vehicle: saline sonified): 104 % of control
- T/C (dose: 200.0 mg/kg/injection, schedule: Q04DX003 (ip), vehicle: saline sonified): 90 % of control
- T/C (dose: 400.0 mg/kg/injection, schedule: Q04DX003 (ip), vehicle: saline sonified): 100 % of control
